The source of these data is PMC8160813, “Design, Synthesis, and Evaluation of Dihydropyranopyrazole Derivatives as Novel PDE2 Inhibitors for the Treatment of Alzheimer’s Disease” (Molecules, 2021).

Format in all cases: biochemical
One assay has as its target T1, PDE4D2 (86–413) (Homo sapiens, UniProt Q08499).
T1 construct: PDE4D2 (86–413)
Description: PDE selectivity enzymatic assay, PDE4D2. The settings on record: Table 2 selectivity panel.

The next assay concerns the target T2, PDE1C (2–634) (Homo sapiens, UniProt Q14123).
T2 construct: PDE1C (2–634)
Nature of the assay: PDE selectivity enzymatic assay, PDE1C. The settings on record: Table 2 selectivity panel.

Assay [1] deals with T3, PDE2A (catalytic domain, 580–919) (Homo sapiens, UniProt O00408).
T3 construct: made in house; host or cells: E. coli BL21 (CodonPlus)
Nature of the assay: In vitro PDE2 enzymatic inhibition assay (3H-cGMP substrate). Conditions: for inhibition at 0.1 µM: compound at 0.1 μM, read-out: Inhibition Ratio (%) 0.1 μM; for inhibition at 0.5 µM: read-out: Inhibition Ratio (%) 0.5 μM; for IC50: means ± SD of three experiments, 3H-cGMP, 25 °C, 15 min, read-out: IC50 (nM) against PDE2. On the procedure:
Purification and expression of the recombinant pET15b-PDE2A plasmid (catalytic domain, 580–919) was performed following our previously reported method. The plasmid pET15b-PDE2A (catalytic domain, 580–919) was transferred to thawed competent E. coli BL21 cells (CodonPlus, Agilent Technologies, Santa Clara, CA, USA), which were grown in 2XYT medium with 100 μg/mL ampicillin and 20 μg/mL chloramphenicol at 37 °C until OD600 = 0.6–0.8. Then, 0.1 mM isopropylthiogalactoside was added for induction, and protein expression was induced by continuing to grow the cells at 16 °C for 24 h. After that, bacteria were collected by centrifugation and frozen overnight at −20 °C. The bacteria containing the recombinant plasmid of the target protein were subjected to cell disruption and passed through a Ni-NTA agarose affinity column, Q-Sepharose ion-exchange column and other steps. The purity can be 95% or more, and a typical purification batch produces 10–20 mg of PDE2A protein from 1.0 L of cell culture.
Using the appropriate concentration of ^3H-cGMP as the substrate, different compound solutions were added to the test group, DMSO was added to the negative control and blank control groups, and EHNA was added to the positive control group, followed by protein solution (the proteins were all diluted with Assay Buffer); Assay Buffer was added to the blank group. The enzymatic reaction was performed at room temperature (25 °C) for 15 min, and then, 0.2 M ZnSO4 was added to inactivate PDE2 and to stop the reaction. Then, 0.2 N Ba(OH)2 solution was added to precipitate the reaction product, and unreacted ^3H-cGMP remained in the supernatant. After mixing the system, it was centrifuged. The radioactivity of the supernatant was measured with a liquid scintillation counter, and the inhibitory activity of the compound against PDE2 was calculated. The above test was repeated three times (the IC50 test generally used 9 concentrations, and the single-point test was directly diluted with DMSO to the required concentration).

Structures are written as SMILES.

T3 sequence (O00408 580-919): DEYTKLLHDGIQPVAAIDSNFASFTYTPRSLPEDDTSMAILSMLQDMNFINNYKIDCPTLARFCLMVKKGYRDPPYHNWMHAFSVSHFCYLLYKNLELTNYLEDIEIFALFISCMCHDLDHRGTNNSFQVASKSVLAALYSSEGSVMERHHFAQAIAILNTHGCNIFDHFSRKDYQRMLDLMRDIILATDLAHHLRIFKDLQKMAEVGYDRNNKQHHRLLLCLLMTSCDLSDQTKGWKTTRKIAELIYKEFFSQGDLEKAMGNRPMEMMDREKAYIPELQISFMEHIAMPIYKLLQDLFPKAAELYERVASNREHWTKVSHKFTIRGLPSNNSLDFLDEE
T2 sequence (Q14123 2-634 isoform Q14123-2): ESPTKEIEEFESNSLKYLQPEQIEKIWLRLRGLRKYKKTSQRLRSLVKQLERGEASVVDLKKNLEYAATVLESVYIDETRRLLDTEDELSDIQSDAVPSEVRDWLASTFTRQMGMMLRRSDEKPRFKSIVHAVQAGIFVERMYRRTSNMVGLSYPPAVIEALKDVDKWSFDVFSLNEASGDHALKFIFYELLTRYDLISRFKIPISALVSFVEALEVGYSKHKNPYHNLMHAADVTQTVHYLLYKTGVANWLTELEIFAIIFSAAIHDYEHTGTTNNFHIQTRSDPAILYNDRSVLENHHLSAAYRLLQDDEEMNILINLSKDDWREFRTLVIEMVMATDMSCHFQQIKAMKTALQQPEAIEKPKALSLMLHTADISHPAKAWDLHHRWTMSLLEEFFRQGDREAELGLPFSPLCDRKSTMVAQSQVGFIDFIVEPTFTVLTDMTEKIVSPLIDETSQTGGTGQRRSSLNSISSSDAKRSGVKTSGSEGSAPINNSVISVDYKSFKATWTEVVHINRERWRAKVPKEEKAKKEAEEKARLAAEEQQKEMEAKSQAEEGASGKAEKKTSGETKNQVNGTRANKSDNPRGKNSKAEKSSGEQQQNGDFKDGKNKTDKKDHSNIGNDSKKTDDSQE
T1 sequence (Q08499 388-715): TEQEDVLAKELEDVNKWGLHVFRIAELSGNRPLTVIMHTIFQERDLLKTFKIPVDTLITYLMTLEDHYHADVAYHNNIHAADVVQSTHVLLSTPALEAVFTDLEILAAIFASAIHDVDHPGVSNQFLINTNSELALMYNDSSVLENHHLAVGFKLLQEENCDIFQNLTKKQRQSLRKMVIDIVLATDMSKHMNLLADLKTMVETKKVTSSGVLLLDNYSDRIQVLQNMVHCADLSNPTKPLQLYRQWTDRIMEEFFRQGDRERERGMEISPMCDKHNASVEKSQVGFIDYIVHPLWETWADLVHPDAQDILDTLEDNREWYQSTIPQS

With `COc1ccc(OCc2ccc(C(F)(F)F)cc2)c(C2C(C#N)=C(N)Oc3[nH]nc(C)c32)c1` (single isomer, unassigned; (+)) [(+)-11h], the IC50 at PDE4D2 (86–413) was over 10000 nM; on PDE1C (2–634), 8760 ± 668 nM; in assay [1] it was 41.5 ± 3.4 nM. Moreover, the inhibition at 0.1 µM in assay [1] (PDE2) was 75.9%. The inhibition at 0.5 µM in assay [1] (PDE2, compound at 0.5 μM) stood at 93.6%.

For the compound `COc1ccc(OCc2ccc(Cl)cc2)c(C2C(C#N)=C(N)Oc3[nH]nc(C)c32)c1` (centres unmarked) [Compound 11f, 6-Amino-4-(2-((4-chlorobenzyl)oxy)-5-methoxyphenyl)-3-methyl-1,4-dihydropyrano[2,3-c]pyrazole-5-carbonitrile], the inhibition at 0.1 µM in assay [1] (PDE2) is 48.1%. Further, in assay [1] (PDE2, compound at 0.5 μM), the inhibition at 0.5 µM was found to be 79.2%. Moreover, the IC50 in assay [1] worked out at 115 ± 1.3 nM.

Consider `Cc1n[nH]c2c1C(c1cc(OC(F)(F)F)ccc1OCc1ccc(C(F)(F)F)cc1)C(C#N)=C(N)O2` (centres unmarked) [Compound 11p, 6-Amino-3-methyl-4-(5-(trifluoromethoxy)-2-((4-(trifluoromethyl)benzyl)oxy)phenyl)-1,4-dihydropyrano[2,3-c]pyrazole-5-carbonitrile], for which the inhibition at 0.5 µM in assay [1] (PDE2, compound at 0.5 μM) was found to be 17.4%.

In the case of `Cc1n[nH]c2c1C(c1cc(C(C)(C)C)ccc1OCc1ccc(C(F)(F)F)cc1)C(C#N)=C(N)O2` (centres unmarked) [Compound 11j, 6-Amino-4-(5-(tert-butyl)-2-((4-(trifluoromethyl)benzyl)oxy)phenyl)-3-methyl-1,4-dihydropyrano[2,3-c]pyrazole-5-carbonitrile], in assay [1] (PDE2, compound at 0.5 μM), the “Inhibition Ratio (%) 0.5 μM” value is recorded as “no inhibition” and the inhibition at 0.5 µM was 0%.

Regarding `Cc1n[nH]c2c1C(c1cc(OC(F)F)ccc1OCc1ccc(C(F)(F)F)cc1)C(C#N)=C(N)O2` (centres unmarked) [Compound 11q, 6-Amino-4-(5-(difluoromethoxy)-2-((4-(trifluoromethyl)benzyl)oxy)phenyl)-3-methyl-1,4-dihydropyrano[2,3-c]pyrazole-5-carbonitrile], in assay [1] (PDE2, compound at 0.5 μM), the inhibition at 0.5 µM came out at 6.6%.

For `COc1ccc(OC(=O)c2ccc(C(F)(F)F)cc2)c(C2C(C#N)=C(N)Oc3[nH]nc(C)c32)c1` (centres unmarked) [Compound 8b, 2-(6-Amino-5-cyano-3-methyl-1,4-dihydropyrano[2,3-c]pyrazol-4-yl)-4-methoxyphenyl-4-(trifluoromethyl)benzoate], the inhibition at 0.5 µM in assay [1] (PDE2, compound at 0.5 μM) stood at 39.1%.

On to `Cc1n[nH]c2c1C(c1cc(OCc3ccc(C(F)(F)F)cc3)ccc1OCc1ccc(C(F)(F)F)cc1)C(C#N)=C(N)O2` (centres unmarked) [Compound 11l, 6-Amino-4-(2,5-bis((4-(trifluoromethyl)benzyl)oxy)phenyl)-3-methyl-1,4-dihydropyrano[2,3-c]pyrazole-5-carbonitrile], for which the inhibition at 0.5 µM in assay [1] (PDE2, compound at 0.5 μM) worked out at 13.4%.

By IC50 is commonly meant the concentration needed to halve the response being measured.
